Reference: patent publication US20080009418A1, “Selective Inhibitors” (Alchemia LTD., priority 2004, published 2008)

How the values were obtained:
[1] = target: T1, Human neurokinin (NK1) (Homo sapiens, UniProt P25103); assay: Radioligand binding, human neurokinin NK1 membranes, filtration, [125I]-Substance P; settings: compound at 10 μM, [125I]-Substance P
T1 construct: purchased Perkin Elmer Biosignal
Summary of the method: (§1)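 Filtration binding on cloned human receptor membranes (1 Unit/well), [125I]-Substance P for NK1 and [3H]-Diprenorphine for KOP, 1 h at room temperature. Filters PEI-presoaked, washed with cold 50 mM Tris-HCl pH 7.4, counted by scintillation; percent inhibition calculated, reference ligand defining non-specific binding.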

[2] = target: T2, Human μ-opioid (MOP) (Homo sapiens, UniProt P35372); assay: Radioligand binding, human μ-opioid (MOP) membranes, FlashPlate, [3H]-Naloxone; settings: compound at 10 μM, [3H]-Naloxone
T2 construct: purchased Perkin Elmer Biosignal
Summary of the method: (§2)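 Cloned human receptor membranes were coated onto FlashPlate wells and incubated with radioligand and compound (added from a 0.5 mM DMSO daughter plate) for 1 hour at room temperature in the dark. Scintillation counting gave percent inhibition, with DMSO defining total and reference ligand defining non-specific binding.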

[3] = target: T3, Human Melanocortin (MC4) (Homo sapiens, UniProt P32245); assay: Radioligand binding, human melanocortin MC4 membranes, FlashPlate, [125I]-NDP-αMSH; settings: compound at 10 μM, [125I]-NDP-αMSH
T3 construct: purchased Perkin Elmer Biosignal
Summary of the method: as §2

[4] = target: T4, Human κ-Opioid (KOP) (Homo sapiens, UniProt P41145); assay: Radioligand binding, human κ-opioid (KOP) membranes, filtration, [3H]-Diprenorphine; settings: compound at 10 μM, [3H]-Diprenorphine
T4 construct: purchased Perkin Elmer Biosignal
Summary of the method: as §1

[5] = target: T5, Human Melanocortin (MC3) (Homo sapiens, UniProt P41968); assay: Radioligand binding, human melanocortin MC3 membranes, FlashPlate, [125I]-NDP-αMSH; settings: compound at 10 μM, [125I]-NDP-αMSH
T5 construct: purchased Perkin Elmer Biosignal
Summary of the method: as §2

[6] = target: T6, Human melanocortin (MC5) (Homo sapiens, UniProt P33032); assay: Radioligand binding, human melanocortin MC5 membranes, FlashPlate, [125I]-NDP-αMSH; settings: compound at 10 μM, [125I]-NDP-αMSH
T6 construct: purchased Perkin Elmer Biosignal
Summary of the method: as §2

[7] = target: T7, Human neuropeptide Y (NPY-Y1) (Homo sapiens, UniProt P25929); assay: Radioligand binding, human neuropeptide Y NPY-Y1 membranes, FlashPlate, [125I]-PYY; settings: compound at 10 μM, [125I]-PYY
T7 construct: purchased Perkin Elmer Biosignal
T7 sequence (P25929 1-384): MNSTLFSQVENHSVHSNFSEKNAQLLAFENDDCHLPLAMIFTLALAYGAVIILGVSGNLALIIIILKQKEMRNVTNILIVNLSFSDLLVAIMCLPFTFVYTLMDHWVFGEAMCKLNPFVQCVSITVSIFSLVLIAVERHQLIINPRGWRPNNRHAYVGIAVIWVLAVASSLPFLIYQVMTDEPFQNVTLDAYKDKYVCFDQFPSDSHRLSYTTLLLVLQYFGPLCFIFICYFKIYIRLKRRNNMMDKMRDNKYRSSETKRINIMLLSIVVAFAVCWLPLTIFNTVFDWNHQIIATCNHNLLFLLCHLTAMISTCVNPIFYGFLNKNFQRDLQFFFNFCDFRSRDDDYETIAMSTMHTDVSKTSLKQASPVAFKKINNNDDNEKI
Summary of the method: as §2

[8] = target: T8, Human δ-opioid (DOP) (Homo sapiens, UniProt P41143); assay: Radioligand binding, human δ-opioid (DOP) membranes, FlashPlate, [3H]-Bremazocine; settings: compound at 10 μM, [3H]-Bremazocine
T8 construct: purchased Perkin Elmer Biosignal
Summary of the method: as §2

[9] = target: T9, Mouse urotensin (mUR2) (Mus musculus, UniProt Q8VIH9); assay: Radioligand binding, mouse urotensin mUR2 membranes, FlashPlate, [125I]-Urotensin II; settings: compound at 10 μM, [125I]-Urotensin II
T9 construct: purchased Perkin Elmer Biosignal
T9 sequence (Q8VIH9 1-385): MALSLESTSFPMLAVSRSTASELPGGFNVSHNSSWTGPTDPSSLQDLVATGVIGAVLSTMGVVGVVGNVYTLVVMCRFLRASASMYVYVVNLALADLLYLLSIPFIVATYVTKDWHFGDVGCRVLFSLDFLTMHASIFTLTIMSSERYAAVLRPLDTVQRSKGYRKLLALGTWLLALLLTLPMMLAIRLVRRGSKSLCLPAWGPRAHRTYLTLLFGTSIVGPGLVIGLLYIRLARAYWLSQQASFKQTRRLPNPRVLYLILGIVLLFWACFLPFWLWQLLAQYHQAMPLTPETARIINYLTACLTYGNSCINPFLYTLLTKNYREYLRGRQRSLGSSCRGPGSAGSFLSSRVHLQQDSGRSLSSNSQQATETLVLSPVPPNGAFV
Summary of the method: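 Cloned mouse urotensin (mUR2) receptor membranes from Perkin Elmer Biosignal were immobilized in FlashPlate microplates using a proprietary coating. Each well got 19.5 μl buffer, then 0.5 μl of DMSO, reference ligand, or compound. Adding 5 μl of [125I]-Urotensin II, diluted to 5× final concentration in binding buffer, started binding. Plates were sealed with TopSeal-A and incubated 1 hour at room temperature in the dark. Wells were counted for 30 seconds each on a TopCount after a 60-second delay, and percentage inhibition was calculated.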

[10] = target: T10, Human melanin-concentrating hormone (MCH1) (Homo sapiens, UniProt Q99705); assay: Radioligand binding, human melanin-concentrating hormone MCH1 membranes, FlashPlate, [125I]-S36057; settings: compound at 10 μM
T10 construct: purchased Perkin Elmer Biosignal
Summary of the method: as §2

[11] = target: T11, Human opioid (ORL1) (Homo sapiens, UniProt P41146); assay: Radioligand binding, human opioid ORL1 membranes, FlashPlate, [125I]-Nociceptin; settings: compound at 10 μM, [125I]-Nociceptin
T11 construct: purchased Perkin Elmer Biosignal
Summary of the method: as §2

T8 sequence (P41143 whole entry): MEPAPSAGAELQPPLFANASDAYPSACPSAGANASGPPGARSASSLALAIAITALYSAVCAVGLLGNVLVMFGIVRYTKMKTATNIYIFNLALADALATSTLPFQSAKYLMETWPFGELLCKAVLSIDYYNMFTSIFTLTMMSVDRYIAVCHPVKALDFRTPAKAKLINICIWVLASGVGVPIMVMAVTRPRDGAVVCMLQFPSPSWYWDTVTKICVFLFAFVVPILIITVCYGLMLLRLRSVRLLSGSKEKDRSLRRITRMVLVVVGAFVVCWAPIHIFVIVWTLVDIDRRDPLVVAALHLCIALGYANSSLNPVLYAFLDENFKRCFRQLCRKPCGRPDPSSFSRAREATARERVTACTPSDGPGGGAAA
T1 sequence (P25103 whole entry): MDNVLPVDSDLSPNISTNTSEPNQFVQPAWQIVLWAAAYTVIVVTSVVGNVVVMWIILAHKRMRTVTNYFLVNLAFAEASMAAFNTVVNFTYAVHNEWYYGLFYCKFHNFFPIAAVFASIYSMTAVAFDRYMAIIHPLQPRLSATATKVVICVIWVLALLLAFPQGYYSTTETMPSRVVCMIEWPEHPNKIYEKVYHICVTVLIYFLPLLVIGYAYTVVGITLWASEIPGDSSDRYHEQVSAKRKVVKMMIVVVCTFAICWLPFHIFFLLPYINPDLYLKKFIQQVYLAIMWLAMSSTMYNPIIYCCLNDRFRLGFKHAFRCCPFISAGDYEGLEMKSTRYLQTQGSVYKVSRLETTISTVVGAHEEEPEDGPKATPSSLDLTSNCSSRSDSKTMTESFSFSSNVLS
T6 sequence (P33032 whole entry): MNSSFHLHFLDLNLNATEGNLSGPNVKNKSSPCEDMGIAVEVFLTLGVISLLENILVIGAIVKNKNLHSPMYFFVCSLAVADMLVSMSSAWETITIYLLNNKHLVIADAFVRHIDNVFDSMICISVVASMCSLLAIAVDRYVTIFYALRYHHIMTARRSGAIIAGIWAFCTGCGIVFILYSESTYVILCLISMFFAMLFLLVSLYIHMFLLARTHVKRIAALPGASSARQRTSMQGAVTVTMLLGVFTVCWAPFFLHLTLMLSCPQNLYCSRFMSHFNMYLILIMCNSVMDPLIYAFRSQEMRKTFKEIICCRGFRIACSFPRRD
T11 sequence (P41146 whole entry): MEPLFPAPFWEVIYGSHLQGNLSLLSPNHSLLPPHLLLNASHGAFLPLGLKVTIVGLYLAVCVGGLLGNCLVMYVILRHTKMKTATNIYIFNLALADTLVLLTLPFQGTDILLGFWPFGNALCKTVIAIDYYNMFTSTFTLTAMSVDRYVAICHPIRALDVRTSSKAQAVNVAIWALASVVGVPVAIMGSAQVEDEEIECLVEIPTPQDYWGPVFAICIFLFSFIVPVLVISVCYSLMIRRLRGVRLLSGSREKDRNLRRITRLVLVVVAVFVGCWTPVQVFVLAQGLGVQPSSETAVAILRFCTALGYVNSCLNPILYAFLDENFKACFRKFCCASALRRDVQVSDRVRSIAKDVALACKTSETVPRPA
T3 sequence (P32245 whole entry): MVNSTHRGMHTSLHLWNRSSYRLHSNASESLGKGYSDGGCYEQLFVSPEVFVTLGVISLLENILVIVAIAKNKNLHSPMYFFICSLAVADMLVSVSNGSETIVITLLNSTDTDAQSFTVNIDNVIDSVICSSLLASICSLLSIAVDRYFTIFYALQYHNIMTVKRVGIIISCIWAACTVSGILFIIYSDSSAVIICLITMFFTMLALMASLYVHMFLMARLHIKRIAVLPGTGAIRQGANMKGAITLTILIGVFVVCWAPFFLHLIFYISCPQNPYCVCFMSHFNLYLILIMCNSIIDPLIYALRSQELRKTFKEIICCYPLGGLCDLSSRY
T10 sequence (Q99705 whole entry): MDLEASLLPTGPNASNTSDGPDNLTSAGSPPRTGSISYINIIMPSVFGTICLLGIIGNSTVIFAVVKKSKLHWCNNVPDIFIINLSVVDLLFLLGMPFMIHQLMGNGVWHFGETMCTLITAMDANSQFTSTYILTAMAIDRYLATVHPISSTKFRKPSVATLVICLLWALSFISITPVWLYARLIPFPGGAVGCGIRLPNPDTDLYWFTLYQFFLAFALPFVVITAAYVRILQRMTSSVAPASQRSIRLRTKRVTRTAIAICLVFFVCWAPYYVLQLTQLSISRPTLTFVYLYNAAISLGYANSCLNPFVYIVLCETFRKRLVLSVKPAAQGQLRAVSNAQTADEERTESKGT
T5 sequence (P41968 whole entry): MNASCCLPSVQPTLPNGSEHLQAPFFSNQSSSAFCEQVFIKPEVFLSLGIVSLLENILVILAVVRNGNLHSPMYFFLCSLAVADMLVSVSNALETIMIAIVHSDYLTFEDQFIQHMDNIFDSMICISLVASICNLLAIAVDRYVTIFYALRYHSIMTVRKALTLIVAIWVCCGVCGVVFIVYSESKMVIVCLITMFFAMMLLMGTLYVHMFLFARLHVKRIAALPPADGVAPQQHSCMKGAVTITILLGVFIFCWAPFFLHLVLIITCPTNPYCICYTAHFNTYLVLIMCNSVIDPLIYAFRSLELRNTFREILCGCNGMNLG
T4 sequence (P41145 whole entry): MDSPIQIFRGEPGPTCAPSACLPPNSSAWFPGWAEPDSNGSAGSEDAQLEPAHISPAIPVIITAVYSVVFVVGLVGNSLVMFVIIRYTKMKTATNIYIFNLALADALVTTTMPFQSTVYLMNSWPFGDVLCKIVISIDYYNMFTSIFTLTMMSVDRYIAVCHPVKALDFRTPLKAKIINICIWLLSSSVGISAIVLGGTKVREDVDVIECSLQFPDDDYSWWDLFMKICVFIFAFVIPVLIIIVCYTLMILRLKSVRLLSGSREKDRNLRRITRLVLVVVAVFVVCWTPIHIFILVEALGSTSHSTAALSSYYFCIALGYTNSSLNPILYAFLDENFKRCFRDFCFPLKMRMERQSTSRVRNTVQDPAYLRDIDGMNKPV
T2 sequence (P35372 whole entry): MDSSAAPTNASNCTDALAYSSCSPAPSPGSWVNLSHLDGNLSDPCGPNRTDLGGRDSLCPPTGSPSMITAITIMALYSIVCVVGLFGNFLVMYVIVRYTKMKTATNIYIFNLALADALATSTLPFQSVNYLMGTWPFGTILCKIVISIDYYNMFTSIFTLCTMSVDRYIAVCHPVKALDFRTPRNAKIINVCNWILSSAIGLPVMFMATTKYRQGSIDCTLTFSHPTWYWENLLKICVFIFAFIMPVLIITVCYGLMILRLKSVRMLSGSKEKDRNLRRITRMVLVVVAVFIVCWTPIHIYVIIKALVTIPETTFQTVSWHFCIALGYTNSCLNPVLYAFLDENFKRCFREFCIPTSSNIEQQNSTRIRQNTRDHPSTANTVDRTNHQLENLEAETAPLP

SMILES	A8: inhibition of radioligand binding ([1]; filtration)	A7: inhibition of radioligand binding ([2]; FlashPlate)	A4: inhibition of radioligand binding ([3]; FlashPlate)	A2: inhibition of radioligand binding ([4]; filtration)	A3: inhibition of radioligand binding ([5]; FlashPlate)	A5: inhibition of radioligand binding ([6]; FlashPlate)	A9: inhibition of radioligand binding ([7]; FlashPlate)	A1: inhibition of radioligand binding ([8]; FlashPlate)	A11: inhibition of radioligand binding ([9]; FlashPlate)	A6: inhibition of radioligand binding ([10]; [125I]-S36057, FlashPlate)	A10: inhibition of radioligand binding ([11]; FlashPlate)	other results
COCC1OC(OCc2ccc(Cl)cc2)C(NC(=O)CN)C(OCc2ccc(Cl)cc2)C1O (stereo not drawn) [compound 199]	+ (“+” indicates greater than 50% inhibition at 10 μM)	− (“−” indicates less than 50% inhibition at 10 μM)	− (“−” indicates less than 50% inhibition at 10 μM)	− (“−” indicates less than 50% inhibition at 10 μM)	− (“−” indicates less than 50% inhibition at 10 μM)	− (“−” indicates less than 50% inhibition at 10 μM)	− (“−” indicates less than 50% inhibition at 10 μM)	− (“−” indicates less than 50% inhibition at 10 μM)	− (“−” indicates less than 50% inhibition at 10 μM)	− (“−” indicates less than 50% inhibition at 10 μM)	− (“−” indicates less than 50% inhibition at 10 μM)	–
NCCC(=O)NC1C(OCc2ccc3ccccc3c2)OC(COCc2ccc(Cl)cc2)C(O)C1OCc1ccccc1 (stereo not drawn) [compound 389]	–	–	–	–	–	–	–	–	–	–	–	A8: inhibition of radioligand binding ([1]; human NK1 membranes): + (“+” indicates greater than 50% inhibition at 10 μM); A7: inhibition of radioligand binding ([2]; human MOP membranes): − (“−” indicates less than 50% inhibition at 10 μM); A4: inhibition of radioligand binding ([3]; human MC4 membranes): + (“+” indicates greater than 50% inhibition at 10 μM); A2: inhibition of radioligand binding ([4]; human KOP membranes): − (“−” indicates less than 50% inhibition at 10 μM); A3: inhibition of radioligand binding ([5]; human MC3 membranes, 10 µM): + (“+” indicates greater than 50% inhibition at 10 μM); A5: inhibition of radioligand binding ([6]; human MC5 membranes): + (“+” indicates greater than 50% inhibition at 10 μM); A9: inhibition of radioligand binding ([7]; human NPY-Y1 membranes): − (“−” indicates less than 50% inhibition at 10 μM); A1: inhibition of radioligand binding ([8]; human DOP membranes): − (“−” indicates less than 50% inhibition at 10 μM); A11: inhibition of radioligand binding ([9]; mouse mUR2 membranes): − (“−” indicates less than 50% inhibition at 10 μM); A6: inhibition of radioligand binding ([10]; [125I]-S36057, human MCH1 membranes, 10 µM): − (“−” indicates less than 50% inhibition at 10 μM); A10: inhibition of radioligand binding ([11]; human ORL1 membranes, 10 µM): + (“+” indicates greater than 50% inhibition at 10 μM)
CSC1O[C@H](COCc2ccc3ccccc3c2)[C@@H](O)[C@@H](OCc2ccc(Cl)cc2)[C@H]1NC(=O)CCN (stereo partly drawn) [compound 282]	+ (“+” indicates greater than 50% inhibition at 10 μM)	− (“−” indicates less than 50% inhibition at 10 μM)	+ (“+” indicates greater than 50% inhibition at 10 μM)	− (“−” indicates less than 50% inhibition at 10 μM)	− (“−” indicates less than 50% inhibition at 10 μM)	− (“−” indicates less than 50% inhibition at 10 μM)	− (“−” indicates less than 50% inhibition at 10 μM)	− (“−” indicates less than 50% inhibition at 10 μM)	− (“−” indicates less than 50% inhibition at 10 μM)	− (“−” indicates less than 50% inhibition at 10 μM)	− (“−” indicates less than 50% inhibition at 10 μM)	–
